Results: patent US8637509B2, “Azaindazoles” (GlaxoSmithKline LLC, priority 2010, dated 2014)

target: T1, EZH2 (Homo sapiens, UniProt Q15910); test: EZH2 methyltransferase SPA assay (3H-SAM, Hela nucleosomes); assay type: biochemical; details: read-out: IC50
T1 construct: GRITS37108
T1 sequence (Q15910 whole entry): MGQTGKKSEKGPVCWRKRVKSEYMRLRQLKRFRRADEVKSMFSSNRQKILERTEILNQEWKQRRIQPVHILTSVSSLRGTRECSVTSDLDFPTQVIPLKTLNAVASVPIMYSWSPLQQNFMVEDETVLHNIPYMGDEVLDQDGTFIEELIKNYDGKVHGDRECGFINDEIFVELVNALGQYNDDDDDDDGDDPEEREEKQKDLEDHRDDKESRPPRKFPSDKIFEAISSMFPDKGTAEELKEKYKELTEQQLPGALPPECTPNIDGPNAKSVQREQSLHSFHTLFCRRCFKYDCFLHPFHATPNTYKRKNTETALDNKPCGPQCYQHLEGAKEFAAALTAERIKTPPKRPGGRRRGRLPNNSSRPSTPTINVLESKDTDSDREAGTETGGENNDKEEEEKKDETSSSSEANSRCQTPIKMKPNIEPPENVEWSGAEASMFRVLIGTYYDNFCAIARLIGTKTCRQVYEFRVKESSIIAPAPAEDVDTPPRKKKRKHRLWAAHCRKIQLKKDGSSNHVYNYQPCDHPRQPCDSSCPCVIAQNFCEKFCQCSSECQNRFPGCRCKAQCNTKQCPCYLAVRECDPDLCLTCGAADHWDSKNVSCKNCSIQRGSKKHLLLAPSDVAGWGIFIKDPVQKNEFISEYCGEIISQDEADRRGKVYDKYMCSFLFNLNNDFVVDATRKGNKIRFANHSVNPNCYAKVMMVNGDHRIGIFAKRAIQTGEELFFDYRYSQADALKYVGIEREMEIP
T1 sequence (O75530 whole entry partner): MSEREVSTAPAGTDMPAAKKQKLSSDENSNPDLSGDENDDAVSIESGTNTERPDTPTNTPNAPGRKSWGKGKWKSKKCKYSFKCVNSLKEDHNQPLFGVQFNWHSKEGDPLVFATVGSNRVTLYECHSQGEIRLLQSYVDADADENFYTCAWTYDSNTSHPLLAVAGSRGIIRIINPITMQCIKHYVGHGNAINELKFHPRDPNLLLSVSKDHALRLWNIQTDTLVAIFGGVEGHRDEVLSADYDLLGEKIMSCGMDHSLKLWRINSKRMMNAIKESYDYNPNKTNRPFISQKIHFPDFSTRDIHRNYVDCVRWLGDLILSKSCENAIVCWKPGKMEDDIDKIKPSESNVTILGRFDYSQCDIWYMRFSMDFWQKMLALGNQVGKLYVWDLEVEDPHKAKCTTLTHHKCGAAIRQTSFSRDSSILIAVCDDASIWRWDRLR
T1 sequence (Q15022 whole entry partner): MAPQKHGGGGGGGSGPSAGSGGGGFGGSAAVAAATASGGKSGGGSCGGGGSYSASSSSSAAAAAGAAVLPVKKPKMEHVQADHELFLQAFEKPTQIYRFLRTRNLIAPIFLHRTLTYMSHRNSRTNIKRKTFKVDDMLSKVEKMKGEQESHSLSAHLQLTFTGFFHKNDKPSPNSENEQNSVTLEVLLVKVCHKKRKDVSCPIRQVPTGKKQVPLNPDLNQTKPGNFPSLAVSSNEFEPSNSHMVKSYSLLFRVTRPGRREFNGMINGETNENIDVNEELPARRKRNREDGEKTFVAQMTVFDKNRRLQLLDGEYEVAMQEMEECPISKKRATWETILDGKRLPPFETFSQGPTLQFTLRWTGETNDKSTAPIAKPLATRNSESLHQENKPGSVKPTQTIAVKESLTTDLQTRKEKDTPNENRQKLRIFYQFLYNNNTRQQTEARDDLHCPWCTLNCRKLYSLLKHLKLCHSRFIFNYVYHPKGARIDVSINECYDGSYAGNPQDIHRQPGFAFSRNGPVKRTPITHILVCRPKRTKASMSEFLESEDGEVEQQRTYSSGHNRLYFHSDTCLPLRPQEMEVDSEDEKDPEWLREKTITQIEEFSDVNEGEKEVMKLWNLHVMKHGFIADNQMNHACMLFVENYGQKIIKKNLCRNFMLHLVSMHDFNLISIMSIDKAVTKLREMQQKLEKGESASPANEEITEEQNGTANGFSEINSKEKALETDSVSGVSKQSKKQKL

Structure (SMILES)	IC50
Cc1cc(C2CCCCC2)c(CNC(=O)c2cc(C3CC3)nc3c2cnn3C(C)C)c(=O)[nH]1 [Ex 16, N-[(4-Cyclohexyl-6-methyl-2-oxo-1,2-dihydro-3-pyridinyl)methyl]-6-cyclopropyl-1-(1-methylethyl)-1H-pyrazolo[3,4-b]pyridine-4-carboxamide]	105 nM
Cc1cc(C)c(CNC(=O)c2cc(N)nc3c2cnn3C(C)C)c(=O)[nH]1 [Ex 6, 6-Amino-N-[(4,6-dimethyl-2-oxo-1,2-dihydro-3-pyridinyl)methyl]-1-(1-methylethyl)-1H-pyrazolo[3,4-b]pyridine-4-carboxamide]	695 nM
CNS(=O)(=O)c1ccc(-c2cc(C(=O)NCc3c(C)cc(C)[nH]c3=O)c3cnn(C(C)C)c3n2)cc1 [Ex 42, N-[(4,6-Dimethyl-2-oxo-1,2-dihydro-3-pyridinyl)methyl]-6-{4-[(methylamino)sulfonyl]phenyl}-1-(1-methylethyl)-1H-pyrazolo[3,4-b]pyridine-4-carboxamide]	56 nM
Cc1cc(C)c(CNC(=O)c2cc(NC3CCOCC3)nc3c2cnn3C(C)C)c(=O)[nH]1 [Ex 54, N-[(4,6-Dimethyl-2-oxo-1,2-dihydro-3-pyridinyl)methyl]-1-(1-methylethyl)-6-(tetrahydro-2H-pyran-4-ylamino)-1H-pyrazolo[3,4-b]pyridine-4-carboxamide]	514 nM
Cc1cc(C)c(CNC(=O)c2cc(N3CCCCC3)nc3c2cnn3C(C)C)c(=O)[nH]1 [Ex 25, N-[(4,6-Dimethyl-2-oxo-1,2-dihydro-3-pyridinyl)methyl]-1-(1-methylethyl)-6-(1-piperidinyl)-1H-pyrazolo[3,4-b]pyridine-4-carboxamide]	685 nM
Cc1cc(C)c(CNC(=O)c2cc(-c3ccc(S(N)(=O)=O)cc3)nc3c2cnn3C(C)C)c(=O)[nH]1 [Ex 50, 6-[4-(Aminosulfonyl)phenyl]-N-[(4,6-dimethyl-2-oxo-1,2-dihydro-3-pyridinyl)methyl]-1-(1-methylethyl)-1H-pyrazolo[3,4-b]pyridine-4-carboxamide]	81 nM
Cc1cc(C)c(CNC(=O)c2cc(-c3cncc(NS(=O)(=O)c4ccccc4)c3)nc3c2cnn3C(C)C)c(=O)[nH]1 [Ex 65, N-[(4,6-Dimethyl-2-oxo-1,2-dihydro-3-pyridinyl)methyl]-1-(1-methylethyl)-6-{5-[(phenylsulfonyl)amino]-3-pyridinyl}-1H-pyrazolo[3,4-b]pyridine-4-carboxamide]	55 nM
Cc1cc(C)c(CNC(=O)c2cc(NC3CCNCC3)nc3c2cnn3C(C)C)c(=O)[nH]1 [Ex 53, N-[(4,6-Dimethyl-2-oxo-1,2-dihydro-3-pyridinyl)methyl]-1-(1-methylethyl)-6-(4-piperidinylamino)-1H-pyrazolo[3,4-b]pyridine-4-carboxamide]	436 nM
CNC(=O)c1ccc(-c2cc(C(=O)NCc3c(C)cc(C)[nH]c3=O)c3cnn(C(C)C)c3n2)cc1 [Ex 46, N-[(4,6-Dimethyl-2-oxo-1,2-dihydro-3-pyridinyl)methyl]-6-{4-[(methylamino)carbonyl]phenyl}-1-(1-methylethyl)-1H-pyrazolo[3,4-b]pyridine-4-carboxamide]	128 nM
Cc1cc(C)c(CNC(=O)c2cc(-c3ccc4[nH]c(=O)[nH]c4c3)nc3c2c(C)nn3C(C)C)c(=O)[nH]1 [Ex 77, N-[(4,6-dimethyl-2-oxo-1,2-dihydro-3-pyridinyl)methyl]-3-methyl-1-(1-methylethyl)-6-(2-oxo-2,3-dihydro-1H-benzimidazol-5-yl)-1H-pyrazolo[3,4-b]pyridine-4-carboxamide]	52 nM
CC(=O)Nc1ccc(-c2cc(C(=O)NCc3c(C)cc(C)[nH]c3=O)c3cnn(C(C)C)c3n2)cn1 [Ex 69, 6-[6-(Acetylamino)-3-pyridinyl]-N-[(4,6-dimethyl-2-oxo-1,2-dihydro-3-pyridinyl)methyl]-1-(1-methylethyl)-1H-pyrazolo[3,4-b]pyridine-4-carboxamide]	25 nM
Cc1cc(C)c(CNC(=O)c2cc(-c3cnc4c(c3)CCC(=O)N4)nc3c2cnn3C(C)C)c(=O)[nH]1 [Ex 96, N-[(4,6-Dimethyl-2-oxo-1,2-dihydro-3-pyridinyl)methyl]-1-(1-methylethyl)-6-(7-oxo-1,5,6,7-tetrahydro-1,8-naphthyridin-3-yl)-1H-pyrazolo[3,4-b]pyridine-4-carboxamide]	57 nM
Cc1cc(C)c(CNC(=O)c2cc(Nc3ccncc3)nc3c2cnn3C(C)C)c(=O)[nH]1 [Ex 84, N-[(4,6-Dimethyl-2-oxo-1,2-dihydro-3-pyridinyl)methyl]-1-(1-methylethyl)-6-(4-pyridinylamino)-1H-pyrazolo[3,4-b]pyridine-4-carboxamide]	99 nM
Cc1cc(C)c(CNC(=O)c2cc(-c3ccncc3)nc3c2cnn3C(C)C)c(=O)[nH]1 [Ex 114, N-[(4,6-Dimethyl-2-oxo-1,2-dihydro-3-pyridinyl)methyl]-1-(1-methylethyl)-6-(4-pyridinyl)-1H-pyrazolo[3,4-b]pyridine-4-carboxamide]	199 nM
Cc1cc(C)c(CNC(=O)c2cc(-c3ccc4nonc4c3)nc3c2c(C)nn3C(C)C)c(=O)[nH]1 [Ex 90, 6-(2,1,3-Benzoxadiazol-5-yl)-N-[(4,6-dimethyl-2-oxo-1,2-dihydro-3-pyridinyl)methyl]-3-methyl-1-(1-methylethyl)-1H-pyrazolo[3,4-b]pyridine-4-carboxamide]	173 nM
Cc1cc(C)c(CNC(=O)c2cc(-c3ccc(S(C)(=O)=O)cc3)nc3c2cnn3C(C)C)c(=O)[nH]1 [Ex 119, N-[(4,6-Dimethyl-2-oxo-1,2-dihydro-3-pyridinyl)methyl]-1-(1-methylethyl)-6-[4-(methylsulfonyl)phenyl]-1H-pyrazolo[3,4-b]pyridine-4-carboxamide]	333 nM
Cc1cc(C)c(CNC(=O)c2cc(C3CC3)nc3c2c(C)nn3C2CCN(C)CC2)c(=O)[nH]1 [Ex 111, 6-Cyclopropyl-N-[(4,6-dimethyl-2-oxo-1,2-dihydro-3-pyridinyl)methyl]-3-methyl-1-(1-methyl-4-piperidinyl)-1H-pyrazolo[3,4-b]pyridine-4-carboxamide]	367 nM
Cc1cc(C)c(CNC(=O)c2cc(N3CCNCC3)nc3c2cnn3C(C)C)c(=O)[nH]1 [Ex 28, N-[(4,6-Dimethyl-2-oxo-1,2-dihydro-3-pyridinyl)methyl]-1-(1-methylethyl)-6-(1-piperazinyl)-1H-pyrazolo[3,4-b]pyridine-4-carboxamide]	348 nM
Cc1cc(C)c(CNC(=O)c2cc(NCc3ccccc3)nc3c2cnn3C(C)C)c(=O)[nH]1 [Ex 35, N-[(4,6-Dimethyl-2-oxo-1,2-dihydro-3-pyridinyl)methyl]-1-(1-methylethyl)-6-[(phenylmethyl)amino]-1H-pyrazolo[3,4-b]pyridine-4-carboxamide]	673 nM
Cc1cc(C)c(CNC(=O)c2cc(-c3ccc4c(c3)NC(=O)C4)nc3c2cnn3C(C)C)c(=O)[nH]1 [Ex 78, N-[(4,6-Dimethyl-2-oxo-1,2-dihydro-3-pyridinyl)methyl]-1-(1-methylethyl)-6-(2-oxo-2,3-dihydro-1H-indol-6-yl)-1H-pyrazolo[3,4-b]pyridine-4-carboxamide]	43 nM
Cc1cc(C)c(CNC(=O)c2cc(-c3ccncc3)nc3c2c(C)nn3C(C)C)c(=O)[nH]1 [Ex 117, N-[(4,6-Dimethyl-2-oxo-1,2-dihydro-3-pyridinyl)methyl]-3-methyl-1-(1-methylethyl)-6-(4-pyridinyl)-1H-pyrazolo[3,4-b]pyridine-4-carboxamide]	190 nM
Cc1cc(C)c(CNC(=O)c2cc(C(C)(C)C)nc3c2c(C)nn3C(C)(C)C)c(=O)[nH]1 [Ex 118, 1,6-Bis(1,1-dimethylethyl)-N-[(4,6-dimethyl-2-oxo-1,2-dihydro-3-pyridinyl)methyl]-3-methyl-1H-pyrazolo[3,4-b]pyridine-4-carboxamide]	273 nM
Cc1cc(C)c(CNC(=O)c2cc(-c3cccnc3)nc3c2c(C)nn3C(C)(C)C)c(=O)[nH]1 [Ex 122, 1-(1,1-Dimethylethyl)-N-[(4,6-dimethyl-2-oxo-1,2-dihydro-3-pyridinyl)methyl]-3-methyl-6-(3-pyridinyl)-1H-pyrazolo[3,4-b]pyridine-4-carboxamide]	153 nM
CC(=O)Nc1cccc(-c2cc(C(=O)NCc3c(C)cc(C)[nH]c3=O)c3cnn(C(C)C)c3n2)c1 [Ex 47, 6-[3-(Acetylamino)phenyl]-N-[(4,6-dimethyl-2-oxo-1,2-dihydro-3-pyridinyl)methyl]-1-(1-methylethyl)-1H-pyrazolo[3,4-b]pyridine-4-carboxamide]	88 nM
Cc1cc(C)c(CNC(=O)c2cc(-c3ccc(N)nc3)nc3c2cnn3C(C)C)c(=O)[nH]1 [Ex 60, 6-(6-Amino-3-pyridinyl)-N-[(4,6-dimethyl-2-oxo-1,2-dihydro-3-pyridinyl)methyl]-1-(1-methylethyl)-1H-pyrazolo[3,4-b]pyridine-4-carboxamide]	198 nM
COc1ccc(-c2cc(C(=O)NCc3c(C)cc(C)[nH]c3=O)c3cnn(C(C)C)c3n2)cn1 [Ex 68, N-[(4,6-Dimethyl-2-oxo-1,2-dihydro-3-pyridinyl)methyl]-1-(1-methylethyl)-6-[6-(methyloxy)-3-pyridinyl]-1H-pyrazolo[3,4-b]pyridine-4-carboxamide]	76 nM
Cc1cc(C(C)C)c(CNC(=O)c2cc(C3CC3)nc3c2cnn3C(C)C)c(=O)[nH]1 [Ex 8, 6-Cyclopropyl-1-(1-methylethyl)-N-{[6-methyl-4-(1-methylethyl)-2-oxo-1,2-dihydro-3-pyridinyl]methyl}-1H-pyrazolo[3,4-b]pyridine-4-carboxamide]	167 nM
Cc1cc(C2CC2)c(CNC(=O)c2cc(-c3ccncc3)nc3c2cnn3C(C)C)c(=O)[nH]1 [Ex 18, N-[(4-Cyclopropyl-6-methyl-2-oxo-1,2-dihydro-3-pyridinyl)methyl]-1-(1-methylethyl)-6-(4-pyridinyl)-1H-pyrazolo[3,4-b]pyridine-4-carboxamide]	40 nM
Cc1cc(C)c(CNC(=O)c2cc(Nc3ccc4[nH]c(=O)[nH]c4c3)nc3c2cnn3C(C)C)c(=O)[nH]1 [Ex 85, N-[(4,6-Dimethyl-2-oxo-1,2-dihydro-3-pyridinyl)methyl]-1-(1-methylethyl)-6-[(2-oxo-2,3-dihydro-1H-benzimidazol-5-yl)amino]-1H-pyrazolo[3,4-b]pyridine-4-carboxamide]	31 nM
